{"source": "patent US9725490B2", "about": "“ERAP1-derived peptide and use thereof” (TOKUSHIMA UNIVERSITY, priority 2011, dated 2017)", "key": {"HDAC1": {"test_system": "HDAC1", "experiment": "Deacetylation (HDAC) assay of anti-PHB2 immunoprecipitate", "type": "cell-based, human", "conditions": "MCF-7, 24 hours", "procedure": "FIG. 4-4 is a diagram illustrating that the ERAP1-peptide promotes nuclear translocation of PHB2. […] MCF-7 cells were treated with the ERAP1-peptide and/or 10 nM E2 for 24 hours. Then, the nuclear fraction was immunoprecipitated with anti-ERα antibody or an anti-PHB2 antibody. […] MCF-7 cells were treated with the ERAP1-peptide and/or E2 for 24 hours. Then, the cell lysate was immunoprecipitated with anti-PHB2 antibody. Subsequently, the HDAC activity in the immunoprecipitate was measured with a commercially available kit. The nuclear extract from the HeLa cells and PBS were used as a positive control (P) and as negative control (N), respectively.\nHDAC assay was performed using HDAC Fluorescent Activity Assay/Drug Discovery Kit (Enzo Life Sciences, Plymouth Meeting, Pa., USA) in accordance with the instruction of the manufacturer. MCF-7 cells were treated with E2 and/or the ERAP1 peptide(s) for 24 hours in a 6-well plate. Then, the cell extract was immunoprecipitated with anti-PHB2 antibody. Furthermore, the immunoprecipitated cell extract was incubated for 30 minutes in the presence of a substrate at 30° C. After the incubation, the reaction was stopped, and the fluorescence was analyzed with a microplate fluorometer (Infinite M200, Tecan, Mannedorf, Switzerland)."}, "[1]": {"test_system": "pS2, cyclin D1, c-Myc, SP-1, E2F1, PgR", "experiment": "Quantitative RT-PCR of ERα target genes, KPL-3C", "type": "cell-based, human", "conditions": "24 hours"}, "[2]": {"test_system": "ERα interaction with IGF-1Rβ, Shc; AKT and MAPK", "experiment": "Non-genomic activation route, immunoblotting, KPL-3C", "type": "cell-based, human", "procedure": "FIG. 9-1 is a diagram illustrating that ERAP1-peptide treatment suppresses the non-genomic activation route. […] The cell lysate of the ERα-positive breast cancer cell lines shown in the figure was subjected to immunoblotting analysis using the antibodies shown in the figure. […] KPL-3C cells were treated with the ERAP1-peptide and/or E2 for 24 hours. Then the nuclear fraction was immunoprecipitated with anti-ERα antibody.\n(§1) FIG. 9-2 is a diagram illustrating that ERAP1-peptide treatment suppresses the non-genomic activation route. […] The cells (C and D) or BT474 cells (E) Were treated with the ERAP1-peptide. Then, the phosphorylation levels of Akt (C). MAPK (C) and ERα (D and E) were evaluated with Western blotting. The relative phosphorylation levels were quantified by densitometry analysis, and the ratio to the value at 0 hour for non-treated cells was calculated."}, "ERα phosphorylation": {"test_system": "ERα phosphorylation", "experiment": "E2-induced ERα phosphorylation, Western blotting, KPL-3C and BT-474", "type": "cell-based, human", "conditions": "KPL-3C and BT-474 cells", "procedure": "as §1"}, "Tam-R MCF-7 tumor": {"test_system": "Tam-R MCF-7 tumor", "experiment": "In vivo antitumor effect, Tam-R MCF-7 orthotopic transplant", "set-up": "species or system BALB/c nude mouse", "conditions": "intraperitoneal every day, E2 6 μg/day, day 21", "excerpt": "FIG. 27 is a diagram illustrating the inhibition effect of the ERAP1-peptide on tumor proliferation in a mouse orthotopically transplanted with human breast cancer. […] KPL-3 cells were subcutaneously transplanted into the breast fat body of a BALB/c nude mouse. The treatment test (5 individuals/group) was initiated (day 0) when the volume of the tumor reached about 50-80 mm^3 in the absence of E2. To a cancerous mouse orthotopically transplanted with KPL-3C tumor, the ERAP1-peptide (Peptide: 14 mg/kg) or the ERAP1-scramble peptide (scrPeptide: 14 mg/kg) was administered every day by intraperitoneal injection. At the same time, E2 (6 μg/day) was administered subcutaneously every day. On day 14, the mouse was euthanatized, and the tumor was removed, and phosphorylation of PHB2/REA (S39) in each tumor was evaluated with immunoblotting analysis. […] The tamoxifen-resistant MCF7-cells (Tam-R MCF-7) were subcutaneously transplanted into the breast fat body of a BALB/c nude mouse, and the treatment test (5 individuals/group) was initiated (day 0) when the volume of the tumor reached about 50-80 mm^3 in the presence of tamoxifen (37 ng/day, 1.85 μg/kg). To a cancerous mouse orthotopically transplanted with Tam-R MCF-7 tumor, the ERAP1-peptide (Peptide: 3.5, 7 and 14 mg/kg) or the ERAP1-scramble peptide (scrPeptide: 14 mg/kg) was administered every day by intraperitoneal injection. […]"}, "[3]": {"test_system": "protein expression in MCF-7 cells", "experiment": "2DICAL proteome analysis, MCF-7", "type": "cell-based, human", "conditions": "10 μM, 10 nM E2 1 hour, versus E2 or E2 + scramble", "procedure": "MCF-7 cells were treated with 10 μM ERAP1-peptide (Peptide) and the ERAP1-scramble peptide (scrPeptide). Then, immediately, the cells were stimulated with 10 nM E2 for 1 hour. Subsequently, the obtained cell lysate solution was digested with trypsin and subjected to 2DICAL. […] MCF-7 cells were treated with 10 μM ERAP1-peptide. Then, immediately, the cells were stimulated with 10 nM E2 for 5, 10 and 15 hours. Then, RNA extraction and then Cy3-cRNA synthesis were performed, and the Cy3-cRNA was subjected to the microarray. The data were statistically analyzed by GeneSpring software, and the ratio to the value at 0 hour was calculated. **P<0.01.\nMCF-7 cells were treated with 10 μM ERAP1-peptide and ERAP1-scramble peptide. Then, immediately, the cells were stimulated with 10 nM E2. Then, the cells were fixed with methanol. The cells were dried under reduced pressure, and then treated with trypsin in the presence of 2% sodium deoxycholate and 5 M urea at 37° C. for 20 hours. The protein was extracted with ethyl acetate. […] The data were calculated as a ratio to the value at 0 hour."}}}
{"smiles": "CSCC[C@H](NC(=O)[C@H](CCC(N)=O)NC(=O)[C@H](CCCNC(=N)N)NC(=O)[C@H](CCCNC(=N)N)NC(=O)[C@H](CCCNC(=N)N)NC(=O)[C@H](CCCNC(=N)N)NC(=O)[C@H](CCCNC(=N)N)NC(=O)[C@H](CCCNC(=N)N)NC(=O)[C@H](CCCNC(=N)N)NC(=O)[C@H](CCCNC(=N)N)NC(=O)[C@H](CCCNC(=N)N)NC(=O)[C@H](CCCNC(=N)N)NC(=O)[C@@H](N)CCCNC(=N)N)C(=O)N[C@@H](CC(C)C)C(=O)N[C@@H](CO)C(=O)N[C@@H](CC(=O)O)C(=O)N[C@@H](CC(C)C)C(=O)N[C@H](C(=O)N[C@@H](CC(C)C)C(=O)N[C@@H](CCC(N)=O)C(=O)N[C@@H](CC(C)C)C(=O)N[C@@H](CCCNC(=N)N)C(=O)N[C@@H](CCC(N)=O)C(=O)N[C@@H](CCCNC(=N)N)C(=O)O)[C@@H](C)O", "note": "[ERAP1-peptide]", "values": [{"measurement": "activity of HDAC1", "setting": "HDAC1", "result": "accelerated dose-dependently"}, {"measurement": "expression of ERα target genes", "setting": "[1]", "result": "remarkable suppression for expression of all of these genes"}, {"measurement": "activations of AKT and MAPK", "setting": "[2]", "result": "activations of AKT and MAPK were suppressed"}, {"measurement": "binding of ERα and Shc and of ERα and IGF-1Rβ", "setting": "[2]", "result": "the binding of ERα and Shc and the binding of ERα and IGF-1Rβ were inhibited"}, {"measurement": "E2-dependent phosphorylation of ERα sites", "setting": "ERα phosphorylation", "result": "E2-dependent phosphorylation in all of the sites was suppressed"}, {"measurement": "antitumor effect (tumor volume)", "setting": "Tam-R MCF-7 tumor", "result": "The antitumor effect was recognized"}, {"measurement": "change of protein expressions", "setting": "[3]", "result": "decreased significantly and genome-widely"}]}
